We go through 1 compound from patent US20170095504A1, “Inhibitors of Kidney Stone Formation and Calcium Deposition” (priority 2015, published 2017).

Test [1] in a line: Effect of inhibitors on crystal morphology (COM/COD/COT). The settings on record: 100 mg/L; 1 hr after start of reaction; control yields COM.
Test [2] in a line: Calcium binding (free Ca in solution before oxalate addition). Type of test: physicochemical. The settings on record: inhibitor 100 mg/L; ~1.0 mM if no Ca binding occurs; control 1.02 mM. On the procedure:
Calcium binding was determined before oxalate addition. Crystals were obtained after the end of the kinetic experiments (1 hour), filtered, dried and tested by FTIR. The major polymorph was reported; other phases may be present but their peaks were not distinguishable in IR. Initial calcium and oxalate concentrations was the same, approximately 1 mM in pH buffered medium containing 10 mM HEPES and 150 mM NaCl. […] The data are Ca recordings obtained from solutions containing the inhibitor (100 mg/L) and calcium. The Ca ion concentration should be ˜1.0 mM if no Ca binding occurs. This could be related to the type of adsorption on the crystals as reported in a later section. Some of our proposed KSIs are showing significant Ca binding activity, and these are likely to be the best candidates as inhibitors.

As for `O=C(O)CN(CCN(CC(=O)O)CC(=O)O)CCN(CC(=O)O)CC(=O)O` [DTPA, diethylenetriaminepentaacetic acid], the “crystal phase obtained (COM, COD or COT)” value in test [1] is recorded as “COT”. Also, the “Ca2+ concentration in the presence of inhibitors at 100 mg/L (PPM)” value in test [2] came to 0.71 mM.
